The nature of data set [1]: Stability of aqueous solutions of combination formulation at pH 5.0. Format: physicochemical. Particulars: pH 5.0 at 25° C.
Data set [2] has as its system Elizabethkingia meningoseptica. Description: MIC testing, Elizabethkingia meningoseptica. Format: cell-based. The conditions noted are these: for MIC50 / MIC90: Elizabethkingia meningoseptica.
Data set [3] has as its system Stenotrophomonas maltophilia. Description: MIC testing, Stenotrophomonas maltophilia. Type of data set: cell-based. The conditions noted are these: for MIC90 / MIC50: Stenotrophomonas maltophilia. From the text: Stenotrophomonas maltophilia is a Gram negative bacillus. It is an opportunistic MDR pathogen. It has been linked to infections with high morbidity and mortality in severely immunocompromised and debilitated individuals.

Data set [4] relates to Pseudomonas aeruginosa. Description: MIC testing, Pseudomonas aeruginosa isolates non-susceptible to meropenem. Format: cell-based. Particulars: for % S@8: 507 isolates non-susceptible to meropenem; for MIC50 / MIC90: Pseudomonas aeruginosa.
Data set [5] concerns Pseudomonas aeruginosa. As to the kind of experiment: MIC testing, Pseudomonas aeruginosa isolates non-susceptible to cefepime. Format: cell-based. The conditions noted are these: for % S@8: 554 isolates non-susceptible to cefepime; for MIC50 / MIC90: Pseudomonas aeruginosa.
Data set [6] in a line: Solubility of Compound 1-dihydrochloride in IPA/water mixtures. Format: physicochemical. The conditions noted are these: IPA/water mixture, aqueous with cosolvent or surfactant or cyclodextrin, thermodynamic from solid. The procedure:
In order to design a re-crystallization process for Compound 1-dihydrochloride salt from water as solvent and IPA as anti-solvent, the solubility of the API in these combinations were determined. Suspensions in various water/IPA mixtures were prepared and incubated for 24 hours at 5°, 25°, 40° and 50° C. Upon completion of the incubation time the solids were separated from the mother liquors by centrifugation and filtration and the concentration of Compound 1 in solution was determined by HPLC analysis. The remaining solids were analyzed by HT-XRPD.

Data set [7] in a line: Physical stability of Compound 1-dihydrochloride at four temperature/RH conditions. Type of data set: physicochemical. The procedure: A physical stability study of Compound 1-dihydrochloride (mixture of Form 1 and Form 2) was conducted. A solid sample of Compound 1-dihydrochloride was incubated under four relative humidity and temperature conditions: 5° C./ambient RH, 25° C./60% RH, 30° C./65% RH and 40° C./75% RH. At regular intervals, the compound was analyzed by HR-XRPD and TGMS. […] The water content is in line with the monohydrate nature of Compound 1-dihydrochloride Form 1. The TGMS analyses recorded for the 2 weeks and 1-month incubation is also along the 3.8% of water (1 molecule of water per molecule of API).

Data set [8] is described as follows: Polymorph and hydrate screen: physical stability of solid forms (AAC, drying). Format: physicochemical. Particulars: 40° C. and 75% RH for 2 days. The procedure: The solids obtained from the various crystallization experiments were analyzed by High Throughput XRPD (HT-XRPD). If relevant, the mother liquors were allowed to evaporate completely, and the remaining solids were analyzed by HT-XRPD. Subsequently, all solids were exposed to accelerated aging conditions for 48 hours at 40° C. and 75% RH (AAC).
From the polymorph screen, four novel diffractograms were identified in addition to the two known forms of Compound 1-dihydrochloride, Form 1 and Form 2. Form 1 was the most abundant solid form found in this polymorph screen. The novel diffractograms were designated Forms 3, 4, 5 and 6. All these forms were found with low frequency and were poorly crystalline. […] The HT-XRPD patterns of the new Forms 3, 4, 5 and 6 are shown in FIG. 12, FIG. 13, FIG. 14, and FIG. 15, respectively.
After completion of the equilibration time, the remaining solids were analyzed by HT-XRPD dry under ambient conditions and dried under vacuum. The mother liquors were analyzed by Karl Fisher titration for water content determination. […] The solutions from these experiments were evaporated under vacuum (200 mBar) and the obtained dried solids analyzed by HT-XRPD. All the solids were then exposed to 40° C. and 75% RH for two days.

≈ marks a conversion by molar mass, not a printed value. Entries after “also recorded” stand apart in the source; their conditions may differ. Where a name gives a salt, the structure may show the parent alone. Read-outs that look alike come from different tables or passages of the source.

A word on the MIC50: it is an inhibitory concentration at the 50% level, which refers to growth in some studies and to a panel of isolates in others. As a reminder, the MIC90 is an inhibitory concentration at the 90% level, which refers to growth in some studies and to a panel of isolates in others. Take `CO/N=C(\C(=O)N[C@@H]1C(=O)N2C(C(=O)[O-])=C(C[N+]3(C)CCCC3)CS[C@H]12)c1csc(N)n1` [Cefepime, cefepime]: the “% present, cefepime” value in data set [1] (20 hours) was determined as 99%. The MIC50 in data set [2] (N=10 strains) was found to be 16 µg/mL (≈ 33.3 µM); in data set [3] (read-out: MIC50), 32 µg/mL (≈ 66.6 µM); in the data set with Pseudomonas aeruginosa [4] it was 32 µg/mL (≈ 66.6 µM); against Pseudomonas aeruginosa [5], 32 µg/mL (≈ 66.6 µM). Also, the MIC90 came out at 32 µg/mL (≈ 66.6 µM) in data set [2] (N=10 strains, read-out: MIC90); 64 µg/mL (≈ 133 µM) in data set [3]; 256 µg/mL (≈ 533 µM) in the data set with Pseudomonas aeruginosa [4]; 256 µg/mL (≈ 533 µM) against Pseudomonas aeruginosa [5]. Further, the “MIC Range” value in data set [2] (N=10 strains, in µg/mL) was 16-32; with Pseudomonas aeruginosa [4] (507 isolates non-susceptible to meropenem (MIC>8 μg/mL)), 1-128. Besides, the “% S” value in data set [3] is 20%. Further, the “% S@8” value with Pseudomonas aeruginosa [4] was 30.8%; in the data set on Pseudomonas aeruginosa [5] it was 0%.

A word on the solubility: it is the dissolved amount per volume that the medium holds. Turning to `NCCN[C@H]1CC[C@H](CC(=O)N[C@H]2Cc3cccc(C(=O)O)c3OB2O)CC1` [Compound 1-dihydrochloride, (R)-3-(2-(trans-4-(2-aminoethylamino)cyclohexyl)acetamido)-2-hydroxy-3,4-dihydro-2H-benzo[e][1,2]oxaborinine-8-carboxylic acid dihydrochloride], the solubility at 24 h in data set [6] (5 °C, IPA/H2O (40:60), 5° C.) amounted to 271 mg/mL; in data set [6] (5 °C, IPA/H2O (50:50), 5° C.), 217 mg/mL; in data set [6] (5 °C, IPA/H2O (60:40), 5° C.) it was 129 mg/mL; in data set [6] (5 °C, IPA/H2O (70:30), 5° C.), 78.6 mg/mL; in data set [6] (5 °C, IPA/H2O (80:20), 5° C.), 28 mg/mL; in data set [6] (5 °C, IPA/H2O (90:10), 5° C.), 4.2 mg/mL. Besides, the solubility at 24 h in data set [6] (25 °C, IPA/H2O (40:60), 25° C.) was determined as 429 mg/mL; in data set [6] (25 °C, IPA/H2O (50:50), 25° C.), 336 mg/mL; in data set [6] (25 °C, IPA/H2O (60:40), 25° C.) it was 205 mg/mL; in data set [6] (25 °C, IPA/H2O (70:30), 25° C.), 101 mg/mL; in data set [6] (25 °C, IPA/H2O (80:20), 25° C.), 41.7 mg/mL; in data set [6] (25 °C, IPA/H2O (90:10), 25° C.) it was 4.2 mg/mL. For the same compound, the solubility at 24 h was determined as 567 mg/mL in data set [6] (40 °C, IPA/H2O (40:60), 40° C.); 454 mg/mL in data set [6] (40 °C, IPA/H2O (50:50), 40° C.); 424 mg/mL in data set [6] (40 °C, IPA/H2O (60:40), 40° C.); 189 mg/mL in data set [6] (40 °C, IPA/H2O (70:30), 40° C.); 81 mg/mL in data set [6] (40 °C, IPA/H2O (80:20), 40° C.); 5.6 mg/mL in data set [6] (40 °C, IPA/H2O (90:10), 40° C.). The solubility at 24 h came to 714 mg/mL in data set [6] (50 °C, IPA/H2O (40:60), 50° C.); 528 mg/mL in data set [6] (50 °C, IPA/H2O (50:50), 50° C.); 440 mg/mL in data set [6] (50 °C, IPA/H2O (60:40), 50° C.); 235 mg/mL in data set [6] (50 °C, IPA/H2O (70:30), 50° C.); 102 mg/mL in data set [6] (50 °C, IPA/H2O (80:20), 50° C.); 7.2 mg/mL in data set [6] (50 °C, IPA/H2O (90:10), 50° C.). Also, in data set [7] (5° C./ambient RH, 25° C./60% RH, 30° C./65% RH and 40° C./75% RH, HR-XRPD, starting mixture of Form 1 and Form 2), the “Solid form after three days exposure” value is “full conversion to Form 1”. The “Solid form upon incubation for extended periods” value in data set [7] (same four conditions, at least up to 1 month) is on record as “No significant changes in the solid form”.

Consider `NCCN[C@H]1CC[C@H](CC(=O)N[C@H]2Cc3cccc(C(=O)O)c3OB2O)CC1` [Form 6], for which the “Physical stability upon exposure to AAC” value in data set [8] is “physically unstable; also recorded: conversion to Form 1 was observed; also recorded: converted to Form 1”.

Take `C[C@@H](O)[C@H]1C(=O)N2C(C(=O)O)=C(S[C@@H]3CN[C@H](C(=O)N(C)C)C3)[C@H](C)[C@H]12` [Meropenem, meropenem]: the “% present, meropenem” value in data set [1] (24 hours) was determined as 89%. Moreover, the MIC90 in data set [2] is 128 µg/mL (≈ 334 µM); in data set [3] it was > 128 µg/mL; with Pseudomonas aeruginosa [4] (read-out: MIC90), > 128 µg/mL; in the data set with Pseudomonas aeruginosa [5] (read-out: MIC90), > 128 µg/mL. Further, the MIC50 in data set [2] (N=10 strains) amounted to 64 µg/mL (≈ 167 µM); in data set [3] it was 128 µg/mL (≈ 334 µM); with Pseudomonas aeruginosa [4] it was 32 µg/mL (≈ 83.4 µM); with Pseudomonas aeruginosa [5], 16 µg/mL (≈ 41.7 µM). Besides, the “% S@8” value in data set [2] (N=10 strains) worked out at 0%; in the data set on Pseudomonas aeruginosa [4], 0%; with Pseudomonas aeruginosa [5] it was 36.6%. Besides, the “% S” value in data set [3] was 0%.

For the origin of these results see patent publication US12187752B2, “Solid forms and combination compositions comprising a beta-lactamase inhibitor and uses thereof” (priority 2017, dated 2025).
